Laboratory results as given in US20130096156A1 (priority 2010, published 2013).
Read-outs that look alike come from different tables or passages of the source.

How the values were obtained:
Plasmopara viticola = Plasmopara viticola / grape / leaf disc preventative; format: in vivo; settings: foliar, grape vine leaf disks, inoculated 1 day after application, assessed 6-8 days after application, read-out: inhibit fungal infestation (percent disease control compared to untreated)
Protocol: (§1) Leaf disks of various plant species (diameter 14 mm) are cut from plants grown in the greenhouse. The cut leaf disks are placed in multiwell plates (24-well format) onto water agar. Immediately after cutting the leaf disks are sprayed with a test solution.
(§2) Compounds to be tested are prepared as DMSO solutions (max. 10 mg/ml). Just before spraying the solutions are diluted to the appropriate concentrations with 0.025% Tween20. After drying, the leaf disks are inoculated with a spore suspension of the appropriate pathogenic fungus.
(§3) After an incubation time of 3-7 days after inoculation at defined conditions (temp, rH, light, etc.) according to the respective test system, the activity of the test compound is assessed as antifungal activity.
Grape vine leaf disks are placed on water agar in multiwell plates (24-well format) and sprayed with the formulated test compound diluted in water. The leaf disks are inoculated with a spore suspension of the fungus 1 day after application. The inoculated leaf disks are incubated at 19° C. and 80% rh under a light regime of 12 h light/12 h darkness in a climate cabinet and the activity of a compound is assessed as percent disease control compared to untreated when an appropriate level of disease damage appears in untreated check leaf disks (6-8 days after application).

[1] = tested on: Blumeria graminis f. sp. tritici (Erysiphe graminis f. sp. tritici); assay: Blumeria graminis f. sp. tritici / wheat / leaf disc preventative (powdery mildew on wheat); format: in vivo; settings: foliar, wheat leaf segments cv. Kanzler, inoculated 1 day after application, assessed 6-8 days after application, read-out: inhibit fungal infestation (percent disease control compared to untreated)
Protocol: as §1, §2, §3
Wheat leaf segments cv. Kanzler are placed on agar in a multiwell plate (24-well format) and sprayed with the formulated test compound diluted in water. The leaf disks are inoculated by shaking powdery mildew infected plants above the test plates 1 day after application. The inoculated leaf disks are incubated at 20° C. and 60% rh under a light regime of 24 h darkness followed by 12 h light/12 h darkness in a climate chamber and the activity of a compound is assessed as percent disease control compared to untreated when an appropriate level of disease damage appears on untreated check leaf segments (6-8 days after application).

Pythium ultimum = Pythium ultimum / liquid culture (seedling damping off); format: cell-based; settings: Globisporangium ultimum, liquid culture in PDB, 24° C., 2-3 days after application, read-out: inhibit fungal infestation (inhibition of growth determined photometrically)
Protocol: Mycelia fragments or conidia suspensions of a fungus, prepared either freshly from liquid cultures of the fungus or from cryogenic storage, are directly mixed into nutrient broth. DMSO solutions of the test compound (max. 10 mg/ml) is diluted with 0.025% Tween20 by factor 50 and 10 μl of this solution is pipetted into a microtiter plate (96-well format) and the nutrient broth containing the fungal spores/mycelia fragments is then added to give an end concentration of the tested compound. The test plates are incubated at 24° C. and 96% rH in the dark. The inhibition of fungal growth is determined photometrically after 2-6 days and antifungal activity is calculated.
Mycelia fragments and oospores of a newly grown liquid culture of the fungus are directly mixed into nutrient broth (PDB potato dextrose broth). After placing a (DMSO) solution of test compound into a microtiter plate (96-well format), the nutrient broth containing the fungal mycelia/spore mixture is added. The test plates are incubated at 24° C. and the inhibition of growth is determined photometrically 2-3 days after application.

Phytophthora infestans = assay: whole plant or invertebrate; format: in vivo; settings: in Solanum lycopersicum, foliar, read-out: inhibit fungal infestation (percent disease control compared to untreated)

SMILES | inhibition at 200 ppm (Plasmopara viticola) [%] | melting point [°C] | inhibition at 200 ppm [1] [%] | inhibition at 200 ppm (Pythium ultimum) [%] | inhibition at 200 ppm (Phytophthora infestans) [%] | inhibition at 200 ppm ([1]; in Triticum aestivum) [%]
COCC#CC(C)(C)NC(=O)C(Oc1cc(C)c2ncc(C)cc2c1)SC (stereo not drawn) [Compound 7, 2-(3,8-Dimethyl-quinolin-6-yloxy)-N-(4-methoxy-1,1-dimethyl-but-2-ynyl)-2-methylsulfanyl-acetamide] | ≥ 80 | 124 to 126 | ≥ 80 | ≥ 80 | ≥ 80 | 
CC#CC(C)(C)NC(=O)C(Oc1cc(F)c2ncc(CC)cc2c1)SC (stereo not drawn) [Compound 15, N-(1,1-Dimethyl-but-2-ynyl)-2-(3-ethyl-8-fluoro-quinolin-6-yloxy)-2-methylsulfanyl-acetamide] | ≥ 80 | 151 to 153 | ≥ 80 | ≥ 80 | ≥ 80 | 
CCc1cnc2ccc(OC(CC)C(=O)NC(C)(C)/C=N/OC)cc2c1 (stereo not drawn) [Compound 31] |  | 125 to 127 |  | ≥ 80 | ≥ 80 | ≥ 80
COCC(C)(C#N)NC(=O)C(Oc1cc(C)c2ncc(C)cc2c1)SC (stereo not drawn) [Compound 11, N-(1-Cyano-2-methoxy-1-methyl-ethyl)-2-(3,8-dimethyl-quinolin-6-yloxy)-2-methylsulfanyl-acetamide] |  | 115 to 117 | ≥ 80 | ≥ 80 |  | 
CCc1cnc2ccc(OC(CC)C(=O)NC(C)(C#N)COC)cc2c1 (stereo not drawn) [Compound 32, N-(1-Cyano-2-methoxy-1-methyl-ethyl)-2-(3-ethyl-quinolin-6-yloxy)-butyramide] |  | 114 to 117 | ≥ 80 |  |  | 
C=Cc1cnc2c(Cl)cc(OC(SC)C(=O)NC(C)(C)C#N)cc2c1 (stereo not drawn) |  | 138 to 141 |  |  |  | 
CC#CC(C)(C)NC(=O)C(Oc1cc(C)c2ncc(CC)cc2c1)SC (stereo not drawn) [Compound 19, N-(1,1-Dimethyl-but-2-ynyl)-2-(3-ethyl-8-methyl-quinolin-6-yloxy)-2-methylsulfanyl-acetamide] | ≥ 80 | 166 to 167 |  | ≥ 80 | ≥ 80 | 
CCc1cnc2c(Cl)cc(OC(SC)C(=O)NC3(C)CCC3)cc2c1 (stereo not drawn) [Compound 28, 2-(8-Chloro-3-ethyl-quinolin-6-yloxy)-N-(1-methyl-cyclobutyl)-2-methylsulfanyl-acetamide] | ≥ 80 | 148 to 150 | ≥ 80 | ≥ 80 |  | 
C=Cc1cnc2c(Cl)cc(OC(OC)C(=O)NC(C)C)cc2c1 (stereo not drawn) [Compound 40, 2-(8-Chloro-3-vinyl-quinolin-6-yloxy)-N-iso-propyl-2-methoxy-acetamide] |  | 108 to 112 | ≥ 80 |  |  | 
CCc1cnc2c(C)cc(OC(SC)C(=O)NC(C)(C)C#CCOC)cc2c1 (stereo not drawn) [Compound 20, 2-(3-Ethyl-8-methyl-quinolin-6-yloxy)-N-(4-methoxy-1,1-dimethyl-but-2-ynyl)-2-methylsulfanyl-acetamide] | ≥ 80 | 137 to 138 |  | ≥ 80 | ≥ 80 | 
CSC(Oc1ccc2ncc(C)cc2c1)C(=O)NC(C)(C)C (stereo not drawn) [Compound 1, N-tert-Butyl-2-(3-methyl-quinolin-6-yloxy)-2-methylsulfanyl-acetamide] |  | 126 to 127 | ≥ 80 | ≥ 80 | ≥ 80 | 
CCc1cnc2c(C)cc(OC(SC)C(=O)NC3CCC3)cc2c1 (stereo not drawn) [Compound 21, N-Cyclobutyl-2-(3-ethyl-8-methyl-quinolin-6-yloxy)-2-methylsulfanyl-acetamide] | ≥ 80 | 157 to 158 |  | ≥ 80 | ≥ 80 | 
CCc1cnc2ccc(OC(CC)C(=O)NC(C)(C)C#CCOC)cc2c1 (stereo not drawn) [Compound 29, 2-(3-Ethyl-quinolin-6-yloxy)-N-(4-methoxy-1,1-dimethyl-but-2-ynyl)-butyramide] |  | 99 to 101 | ≥ 80 | ≥ 80 | ≥ 80 | 
CCc1cnc2c(C)cc(OC(SC)C(=O)NC(C)(C)C)cc2c1 (stereo not drawn) [Compound 17, N-tert-Butyl-2-(3-ethyl-8-methyl-quinolin-6-yloxy)-2-methylsulfanyl-acetamide] | ≥ 80 | 153 to 154 |  | ≥ 80 | ≥ 80 | 
CCc1cnc2c(Cl)cc(OC(SC)C(=O)NC3CCC3)cc2c1 (stereo not drawn) |  | 154 to 156 |  |  |  | 
CC#CC(C)(C)NC(=O)C(Oc1cc(Cl)c2ncc(CC)cc2c1)SC (stereo not drawn) |  | 186 to 188 |  |  |  | 
C=Cc1cnc2ccc(OC(CC)C(=O)NC(C)(C#N)COC)cc2c1 (stereo not drawn) [Compound 39, N-(1-Cyano-2-methoxy-1-methyl-ethyl)-2-(3-vinyl-quinolin-6-yloxy)-butyramide] |  | 120 to 125 | ≥ 80 | ≥ 80 |  | 
CCc1cnc2c(C)cc(OC(SC)C(=O)NC3(C)CCC3)cc2c1 (stereo not drawn) [Compound 22, 2-(3-Ethyl-8-methyl-quinolin-6-yloxy)-N-(1-methyl-cyclobutyl)-2-methylsulfanyl-acetamide] | ≥ 80 | 150 to 151 |  | ≥ 80 | ≥ 80 | 
C=Cc1cnc2c(F)cc(OC(SC)C(=O)NC(C)CC)cc2c1 (stereo not drawn) [Compound 38, N-sec-Butyl-2-(8-fluoro-3-vinyl-quinolin-6-yloxy)-2-methylsulfanyl-acetamide] |  | 110 to 112 | ≥ 80 | ≥ 80 |  | 
CCc1cnc2c(Cl)cc(OC(SC)C(=O)NC(C)(C)C#CCOC)cc2c1 (stereo not drawn) [Compound 27, 2-(8-Chloro-3-ethyl-quinolin-6-yloxy)-N-(4-methoxy-1,1-dimethyl-but-2-ynyl)-2-methylsulfanyl-acetamide] | ≥ 80 | 139 to 142 | ≥ 80 |  | ≥ 80 | 
CCc1cnc2ccc(OC(CC)C(=O)NC3(C)CCC3)cc2c1 (stereo not drawn) [Compound 30, 2-(3-Ethyl-quinolin-6-yloxy)-N-(1-methyl-cyclobutyl)-butyramide] |  | 110 to 112 | ≥ 80 | ≥ 80 | ≥ 80 | 
CCC(C)(C)NC(=O)C(Oc1ccc2ncc(C)cc2c1)SC (stereo not drawn) [Compound 5, N-(1,1-Dimethyl-propyl)-2-(3-methyl-quinolin-6-yloxy)-2-methylsulfanyl-acetamide] |  | 103 to 104 |  | ≥ 80 | ≥ 80 | 
COCC#CC(C)(C)NC(=O)C(Oc1ccc2ncc(C)cc2c1)SC (stereo not drawn) [Compound 4, N-(4-Methoxy-1,1-dimethyl-but-2-ynyl)-2-(3-methyl-quinolin-6-yloxy)-2-methylsulfanyl-acetamide] |  | 100 to 102 | ≥ 80 | ≥ 80 | ≥ 80 | 
C=Cc1cnc2c(Cl)cc(OC(CC)C(=O)NC(C)(C)C)cc2c1 (stereo not drawn) |  | 100 to 102 |  |  |  | 
